Series [1] relates to murine B16-F10 cancer cells. The series can be described thus: syngeneic melanoma tumor model (B16-F10). The series is classed as in vivo, mice. To be noted: for body weights, dose-response study: equivalent doses, −20% endpoint limit. On the procedure:
(§1) Briefly, stock solution of formulated TH1902 was prepared as sterile aliquots of 10 mg/mL frozen liquid solutions (see below). On the day of animal dosing, frozen aliquots were thawed 30 minutes at room temperature then diluted with sterile 5% dextrose injection, USP (D5W) to the desired concentration for injection (i.e. typically 5.4 or 1.35 mg/mL).
TH1902 frozen stock solution were prepared as follow: • 1. Make the TH1902 diluent solution (Diluent) the day before the solubilization. Diluent: 10% Tween™ 80 in D5W USP (w/v) with 0.04% of formic acid (v/v), ˜pH 2.9. Leave solution at room temperature until TH1902 solubilization (next day). • 2. Weigh 60 mg of TH1902 API into a 14 ml glass vial with screw caps. Adjust TH1902 weights to reflect TH1902 purity according to the certificate of analysis. • 3. Add 90% of diluent solution needed to prepare the TH1902 10 mg/ml stock solution. • 4. Swirl the content of the bottle to form opaque mixture and place a stir bar. • 5. Place bottle in the heating apparatus (glass water bath and mount for holding vial with thermometer and stir bar on a digital heating plate). Begin mixing the content of the bottle. • 6. Gradually increase the temperature of water bath in increments of 5° C. every 30 minutes until mixture turns clear (temperature ramping up to 45° C. over a period of time of about 165 to 180 minutes). Record water bath temperature every 15 minutes. • 7. Leave at room temperature for 30 minutes with gentle swirling (cool down). Measure pH. Adjust pH to 4.3±0.2 using dilute NaOH (0.1 N or less). • 8. Transfer the formulation to a graduated glass cylinder and bring to final calculated volume with diluent solution. • 9. Transfer back into the 14 ml glass vial and mix slowly for 5 minutes at room temperature. Measure pH. pH should be 4.3±0.2. • 10. Filter sterilize with a PES 0.22 μm membrane into a new and sterile 14 ml glass vial. Check the pH again. Perform UPLC analysis against a TH1902 standard curve for quantification and purity assessment. • 11. Freeze aliquots of TH1902 stock solution at −80° C. (0.5 mL per aliquot in 4 mL glass vials).
For the syngeneic B16-F10 melanoma tumor model, normal immunocompetent mice were implanted subcutaneously with murine B16-F10 cancer cells. […]
For FIG. 28A, immunocompetent mice bearing B16-F10 xenografts were repeatedly injected intravenously (arrows indicate injection days) with vehicle or with vehicle containing equivalent of docetaxel (15 mg/kg/week) or TH1902 (35 mg/kg/week). In FIG. 28B, the effects of TH1902 and docetaxel on tumor progression at day-14 are presented by subtracting the initial tumor volumes at day-0 to the tumor volumes measured at day-14 when tumors of the vehicle group reached the endpoint limits. […]

The nature of series [2]: assessment of neutropenia in treated mice. To be noted: athymic mice; for neutrophil counts: docetaxel 15 mg/kg/week or TH1902 at equivalent dose, up to 6 treatments, FIG. 11. The series is classed as in vivo. On the procedure:
15 young adult, female, homozygous athymic mice (Crl:CD1-Foxn1^nu, 4-6 weeks of age) received 6 consecutive treatments of docetaxel or TH1902 (at equivalent dose of docetaxel (15 mg/kg/week)). […] This level continued to decrease as the administration of docetaxel continued.

For series [3], the system named is AN3-CA endometrial xenograft tumor. In kind it is in vivo, mice. On the procedure: as §1
TH1902 frozen stock solution were prepared as follow: • 1. Make the TH1902 diluent solution (Diluent) the day before the solubilization. Diluent: 10% Tween™ 80 in D5W USP (w/v) with 0.04% of formic acid (v/v), ˜pH 2.9. Leave solution at room temperature until TH1902 solubilization (next day). • 2. Weigh 60 mg of TH1902 API into a 14 ml glass vial with screw caps. Adjust TH1902 weights to reflect TH1902 purity according to the certificate of analysis. • 3. Add 90% of diluent solution needed to prepare the TH1902 10 mg/ml stock solution. • 4. Swirl the content of the bottle to form opaque mixture and place a stir bar. • 5. Place bottle in the heating apparatus (glass water bath and mount for holding vial with thermometer and stir bar on a digital heating plate). Begin mixing the content of the bottle. • 6. […] Transfer the formulation to a graduated glass cylinder and bring to final calculated volume with diluent solution. • 9. […] Perform UPLC analysis against a TH1902 standard curve for quantification and purity assessment. • 11. […]
Three human sortilin-positive gynecological cancer cell lines (ovary: ES-2 and SKOV-3/Luc, endometrial: AN3-CA) were used for to assess the chemotherapeutic activity of TH1902 in vivo using xenograft models in immunodeficient mice. […] Body weights of the mice administered with docetaxel, TH1902 or vehicle were monitored as a gross indicator of morbidity.
The effect of TH1902 or docetaxel on the endometrial AN3-CA xenograft tumor model is shown on FIG. 24. […] In FIG. 24B effects of TH1902 and docetaxel on tumor progression at day-14 are presented by subtracting the initial tumor volumes at day-0 to the tumor volumes measured at day 14. […]

Series [4] deals with MDA-MB-231 breast cancer cells. Nature of the series: cells. In kind it is cell-based, human. To be noted: read-out: IC50 value, anti-proliferative activity. On the procedure:
In vitro testing of the TH19P01 peptide and the TH1902 conjugate compound was conducted.

Results on two compounds are retold here after patent publication US20230036041A1, “SORTILIN BINDING CONJUGATE COMPOUNDS, COMPOSITIONS AND USES THEREOF FOR TREATING CANCER” (THERATECHNOLOGIES INC., priority 2019, published 2023).

Like-named read-outs stand apart in the source and are kept apart here. Non-standard residues stand in square brackets, D forms with d. Residues, ends and D or L forms follow the SMILES beside them. *: point of attachment. X1 = CC(=O)O[C@@]12CO[C@@H]1C[C@H](O)[C@@]1(C)C(=O)[C@H](O)C3=C(C)[C@@H](OC(=O)[C@H](OC(=O)CCC(=O)*)[C@@H](NC(=O)OC(C)(C)C)c4ccccc4)C[C@@](O)([C@@H](OC(=O)c4ccccc4)[C@H]21)C3(C)C; Nle = CCCC[C@H](N)C(=O)O

As for `CCCC[C@H](NC(=O)[C@H](CC(N)=O)NC(=O)[C@H](CCCNC(=N)N)NC(=O)[C@@H](NC(=O)CNC(=O)[C@H](C)NC(=O)[C@H](CCCCNC(=O)CCC(=O)O[C@@H](C(=O)O[C@H]1C[C@@]2(O)[C@@H](OC(=O)c3ccccc3)[C@@H]3[C@]4(OC(C)=O)CO[C@@H]4C[C@H](O)[C@@]3(C)C(=O)[C@H](O)C(=C1C)C2(C)C)[C@@H](NC(=O)OC(C)(C)C)c1ccccc1)NC(=O)[C@H](C)NC(=O)[C@H](CCCNC(=N)N)NC(=O)[C@@H](NC(=O)CNC(C)=O)C(C)C)C(C)C)C(=O)N[C@@H](Cc1ccccc1)C(=O)N[C@@H](CCCCNC(=O)CCC(=O)O[C@@H](C(=O)O[C@H]1C[C@@]2(O)[C@@H](OC(=O)c3ccccc3)[C@@H]3[C@]4(OC(C)=O)CO[C@@H]4C[C@H](O)[C@@]3(C)C(=O)[C@H](O)C(=C1C)C2(C)C)[C@@H](NC(=O)OC(C)(C)C)c1ccccc1)C(=O)N[C@@H](CO)C(=O)N[C@@H](CCC(=O)O)C(=O)N[C@@H](CO)C(=O)N[C@@H](Cc1ccc(O)cc1)C(=O)O` [TH1902, Acetyl-GVRAK(docetaxel)AGVRN(Nle)FK(docetaxel)SESY] (Ac-GVRAK(X1)AGVRN[Nle]FK(X1)SESY-OH), in series [1] (TH1902 35 mg/kg/week), the “mouse body weights, first study” value is “without having an impact on mouse body weights”. Also, the “body weights, dose-response study” value in series [1] is recorded as “within the acceptable range”. The weight loss entry in series [2] (TH1902 at equivalent dose of docetaxel 15 mg/kg/week) is listed as “no weight loss was observed”. Besides, the neutrophil counts entry in series [2] is on record as “no apparent change in the neutrophil counts”. The body weights entry in series [3] (MTD for docetaxel, TH1902 containing the equivalent quantity of docetaxel) is “retained a fairly constant weight”. Besides, the IC50 – broadly, the concentration needed to halve the response being measured – in series [4] stood at 0.19 ± 0.09 nM.
Take `CC(=O)O[C@@]12CO[C@@H]1C[C@H](O)[C@@]1(C)C(=O)[C@H](O)C3=C(C)[C@@H](OC(=O)[C@H](O)[C@@H](NC(=O)OC(C)(C)C)c4ccccc4)C[C@@](O)([C@@H](OC(=O)c4ccccc4)[C@H]21)C3(C)C` [docetaxel]: the “tumor growth at the highest dose, dose-response study” value in series [1] (TH1902 23 mg/kg/bi-weekly, docetaxel 10 mg/kg/bi-weekly) is “only a minor impact on tumor growth”. Moreover, the “body weights, dose-response study” value in series [1] was “within the acceptable range”. Also, the neutrophil counts result in series [2] is “sharp drop in neutrophil levels”. The “tumor growth, high dose” value in series [3] (equivalent dose of docetaxel 15 mg/kg/week (TH1902 35 mg/kg/week), halved after 2 cycles) is on record as “complete arrest tumor growth arrest”. The body weights result in series [3] (mouse, in vivo) was “greater evidence of weight loss”. In addition, in series [4] (Homo sapiens), the 50% inhibitory concentration (IC50) was determined as 0.56 ± 0.19 nM.
